Experimental data from US9919998B2, “Antibacterial agents: Nα-aroyl-N-aryl-phenylalaninamides” (priority 2014, dated 2018).
≈ marks a conversion by molar mass, not a printed value. Where “and” joins values, the source holds several entries; their conditions need not be identical. Equal values may be shown once. Read-outs that look alike come from different tables or passages of the source.

What was measured:
[1] = target: Mycobacterium tuberculosis RNA polymerase (Mycobacterium tuberculosis, UniProt P9WGY7+P9WGY9); assay: Run-off transcription assay with Mycobacterium tuberculosis RNA polymerase (radiochemical); type: biochemical
Sequence of Mycobacterium tuberculosis RNA polymerase (P9WGZ1 whole entry, the tested form may be a part): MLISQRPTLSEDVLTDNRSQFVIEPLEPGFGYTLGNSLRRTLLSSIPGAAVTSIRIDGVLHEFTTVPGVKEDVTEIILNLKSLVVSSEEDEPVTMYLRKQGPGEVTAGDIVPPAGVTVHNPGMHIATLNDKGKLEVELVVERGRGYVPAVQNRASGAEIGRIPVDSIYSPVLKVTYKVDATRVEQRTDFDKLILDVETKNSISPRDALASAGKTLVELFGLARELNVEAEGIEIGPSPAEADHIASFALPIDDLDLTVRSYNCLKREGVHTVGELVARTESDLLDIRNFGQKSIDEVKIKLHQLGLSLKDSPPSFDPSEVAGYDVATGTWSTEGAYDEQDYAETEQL
Sequence of Mycobacterium tuberculosis RNA polymerase (P9WGY5 whole entry, further chain, the tested form may be a part): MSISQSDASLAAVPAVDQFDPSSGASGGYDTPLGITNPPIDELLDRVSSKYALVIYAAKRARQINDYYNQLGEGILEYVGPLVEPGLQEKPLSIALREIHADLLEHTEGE
Sequence of Mycobacterium tuberculosis RNA polymerase (P9WGY9 whole entry, the tested form may be a part): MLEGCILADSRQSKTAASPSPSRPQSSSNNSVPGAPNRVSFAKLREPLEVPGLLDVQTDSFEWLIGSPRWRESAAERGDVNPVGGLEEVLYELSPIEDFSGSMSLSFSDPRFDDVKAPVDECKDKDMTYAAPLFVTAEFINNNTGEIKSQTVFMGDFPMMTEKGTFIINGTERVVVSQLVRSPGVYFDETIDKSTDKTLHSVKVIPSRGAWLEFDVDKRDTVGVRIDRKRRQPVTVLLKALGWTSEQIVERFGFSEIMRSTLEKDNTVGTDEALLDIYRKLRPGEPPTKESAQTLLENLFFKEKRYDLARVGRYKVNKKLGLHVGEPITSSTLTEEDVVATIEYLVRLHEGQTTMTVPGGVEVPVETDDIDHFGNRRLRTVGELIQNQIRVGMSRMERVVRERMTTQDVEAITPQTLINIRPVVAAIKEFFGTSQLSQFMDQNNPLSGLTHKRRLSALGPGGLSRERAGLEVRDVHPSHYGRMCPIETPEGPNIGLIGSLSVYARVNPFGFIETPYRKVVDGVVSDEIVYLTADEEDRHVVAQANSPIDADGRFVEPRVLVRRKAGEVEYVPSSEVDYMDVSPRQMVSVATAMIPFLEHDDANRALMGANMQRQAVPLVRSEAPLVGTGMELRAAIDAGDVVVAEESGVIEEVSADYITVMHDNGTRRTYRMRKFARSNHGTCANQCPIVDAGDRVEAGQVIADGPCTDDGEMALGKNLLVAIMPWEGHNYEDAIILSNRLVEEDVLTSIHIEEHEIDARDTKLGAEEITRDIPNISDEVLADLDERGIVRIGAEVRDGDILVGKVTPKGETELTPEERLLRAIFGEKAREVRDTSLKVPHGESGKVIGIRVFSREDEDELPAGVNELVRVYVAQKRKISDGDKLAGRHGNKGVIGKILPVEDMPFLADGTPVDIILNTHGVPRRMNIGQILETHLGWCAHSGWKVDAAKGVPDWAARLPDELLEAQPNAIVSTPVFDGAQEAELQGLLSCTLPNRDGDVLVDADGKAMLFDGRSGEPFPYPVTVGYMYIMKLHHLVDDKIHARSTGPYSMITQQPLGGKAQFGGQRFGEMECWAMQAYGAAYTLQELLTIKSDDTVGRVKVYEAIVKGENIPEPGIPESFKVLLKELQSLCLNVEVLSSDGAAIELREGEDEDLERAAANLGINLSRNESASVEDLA
Sequence of Mycobacterium tuberculosis RNA polymerase (P9WGI1 whole entry, further chain, the tested form may be a part): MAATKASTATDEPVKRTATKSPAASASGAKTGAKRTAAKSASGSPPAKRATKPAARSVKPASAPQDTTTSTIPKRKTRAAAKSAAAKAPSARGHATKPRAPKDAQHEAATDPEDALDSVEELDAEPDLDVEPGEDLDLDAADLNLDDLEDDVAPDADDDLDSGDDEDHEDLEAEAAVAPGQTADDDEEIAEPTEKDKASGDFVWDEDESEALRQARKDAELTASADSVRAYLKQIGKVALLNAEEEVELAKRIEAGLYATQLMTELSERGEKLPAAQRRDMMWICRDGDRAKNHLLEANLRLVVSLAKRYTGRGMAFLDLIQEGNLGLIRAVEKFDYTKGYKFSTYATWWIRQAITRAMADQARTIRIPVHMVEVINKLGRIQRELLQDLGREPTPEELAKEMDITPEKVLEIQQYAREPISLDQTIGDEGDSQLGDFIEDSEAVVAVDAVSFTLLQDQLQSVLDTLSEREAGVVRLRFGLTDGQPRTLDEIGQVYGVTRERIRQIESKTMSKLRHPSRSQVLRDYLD
Sequence of Mycobacterium tuberculosis RNA polymerase (P9WGY7 whole entry, the tested form may be a part): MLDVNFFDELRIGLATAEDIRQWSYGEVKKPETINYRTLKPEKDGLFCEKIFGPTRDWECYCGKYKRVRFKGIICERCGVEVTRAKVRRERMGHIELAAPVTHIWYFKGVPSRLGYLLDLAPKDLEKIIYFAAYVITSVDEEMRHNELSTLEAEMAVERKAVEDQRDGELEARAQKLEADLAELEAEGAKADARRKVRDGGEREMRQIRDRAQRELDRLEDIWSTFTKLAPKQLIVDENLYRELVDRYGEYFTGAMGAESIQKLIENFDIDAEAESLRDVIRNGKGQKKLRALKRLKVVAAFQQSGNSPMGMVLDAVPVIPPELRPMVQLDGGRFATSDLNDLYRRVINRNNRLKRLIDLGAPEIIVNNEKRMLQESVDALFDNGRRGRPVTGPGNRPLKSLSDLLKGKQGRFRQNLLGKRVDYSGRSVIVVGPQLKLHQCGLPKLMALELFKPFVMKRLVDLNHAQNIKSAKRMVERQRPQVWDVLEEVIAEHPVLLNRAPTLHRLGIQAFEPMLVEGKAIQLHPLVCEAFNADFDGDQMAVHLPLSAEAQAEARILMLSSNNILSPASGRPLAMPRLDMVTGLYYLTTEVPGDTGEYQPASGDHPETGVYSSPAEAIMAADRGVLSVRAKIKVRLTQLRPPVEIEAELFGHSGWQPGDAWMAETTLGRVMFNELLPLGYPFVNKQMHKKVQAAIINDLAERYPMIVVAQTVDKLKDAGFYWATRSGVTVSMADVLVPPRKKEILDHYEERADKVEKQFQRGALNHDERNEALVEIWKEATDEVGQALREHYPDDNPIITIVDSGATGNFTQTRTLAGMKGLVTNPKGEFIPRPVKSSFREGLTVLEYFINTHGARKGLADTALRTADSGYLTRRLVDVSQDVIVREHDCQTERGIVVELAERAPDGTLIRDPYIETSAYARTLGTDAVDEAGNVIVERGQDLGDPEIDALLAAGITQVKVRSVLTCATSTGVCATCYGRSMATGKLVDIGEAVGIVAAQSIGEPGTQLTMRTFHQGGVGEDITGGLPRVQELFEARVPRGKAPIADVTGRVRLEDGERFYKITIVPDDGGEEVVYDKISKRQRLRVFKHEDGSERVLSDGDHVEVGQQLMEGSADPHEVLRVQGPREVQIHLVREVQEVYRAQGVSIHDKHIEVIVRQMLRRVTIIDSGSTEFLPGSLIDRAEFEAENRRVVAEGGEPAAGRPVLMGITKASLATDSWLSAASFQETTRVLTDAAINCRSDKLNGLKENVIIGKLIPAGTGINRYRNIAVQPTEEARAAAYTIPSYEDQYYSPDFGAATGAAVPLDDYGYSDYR
Method: Run-off transcription assays with Mycobacterium tuberculosis RNA polymerase were performed using reaction mixtures containing (10 μl): 0-100 μM test compound, 75 nM Mycobacterium tuberculosis RNA polymerase core enzyme, 300 nM Mycobacterium tuberculosis σ^A, 20 nM 130 bp DNA fragment containing positions −100 to −1 of the bacteriophage […] N25 promoter followed by positions +1 to +30 of the lacUV5-15 promoter of [Mukhopadhyay, J., Kapanidis, A., Mekler, V., Kortkhonjia, E., Ebright, Y., Ebright, R. (2001) Cell 106, 453-463], 25 nM [alpha-^32P]UTP (600 Bq/pmol) for an initial 2 min at 37° C. and 100 μM [alpha-^32P]UTP (6 Bq/pmol) for a subsequent 5 min at 37° C., 100 μM ATP, 100 μM GTP, 100 μM UTP, 100 μM CTP, 40 mM Tris-HCl, pH 8.0, 80 mM NaCl, 5 mM MgCl2, 2.5 mM DTT, and 12.7% glycerol. Reactions were terminated by addition of […] 80% formamide, 10 mM EDTA, 0.04% bromophenol blue, and 0.04% xylene cyanol, followed by heating for 5 min at 90° C. Reaction products were resolved by 15% urea-PAGE, and quantified using a storage-phosphor scanner.

[2] = test system: Mycobacterium tuberculosis H37Rv; assay: Microplate Alamar Blue assay (MABA) MIC, M. tuberculosis; type: cell-based
Description: (§1) Minimal inhibitory concentrations (MICs) in Mycobacterium tuberculosis H37Rv and Mycobacterium avium ATCC 25291 were quantified using microplate Alamar Blue assays as described (MABA; [Collins, L. & Franzblau, S. (1997) Microplate Alamar Blue assay versus BACTEC 460 system for high-throughput screening of compounds against Mycobacterium tuberculosis and Mycobacterium avium. Antimicrob. Agents Chemother. 41, 1004-1009]).

[3] = test system: Mycobacterium smegmatis ATCC 19420; assay: Broth microdilution MIC, M. smegmatis; type: cell-based; conditions: Mycolicibacterium smegmatis
Description: (§2) MICs in Mycobacterium smegmatis ATCC 19420 and Mycobacterium smegmatis ATCC 19420 derivatives were quantified using broth microdilution assays as described [Clinical and Laboratory Standards Institute (CLSI/NCCLS) (2009) Methods for Dilution Antimicrobial Susceptibility Tests for Bacteria That Grow Aerobically; Approved Standard, Eighth Edition. CLIS Document M07-A8 (CLIS, Wayne Pa.)].

[4] = test system: Vero E6 ATCC CRL1586 cells; assay: Mammalian-cell cytotoxicity, minimal cytotoxic concentration (CellTiter96); type: cell-based
Method: Minimal cytotoxic concentrations (MCCs) against mammalian cells in culture were determined using Vero E6 ATCC CRL1586 cells and the CellTiter96 assay kit (Promega, Inc.). […]

[5] = test system: Mycobacterium avium ATCC 25291; assay: Microplate Alamar Blue assay (MABA) MIC, M. avium; type: cell-based; conditions: ATCC25291, M. avium ATCC 25291
Description: as §1

[6] = test system: rifampin-resistant mutants, derivatives of M. smegmatis ATCC19420; assay: MICs in rifampin-resistant mutants (cross-resistance levels); type: cell-based, Mycobacterium smegmatis
Description: as §2

[7] = radiochemical transcription assays, M. tuberculosis RNA polymerase, read-out: Inhibition of mycobacterial RNA polymerase (IC50s)
[8] = Inhibition of mycobacterial RNA polymerase (IC50s), radiochemical transcription assays, M. tuberculosis RNA polymerase
[9] = MABA-MIC assays, read-out: Inhibition of mycobacterial growth in culture (MICs)
[10] = ATCC19420, broth microdilution assays, M. smegmatis ATCC19420, read-out: Inhibition of mycobacterial growth in culture (MICs)
[11] = IC50 Mycobacterium tuberculosis RNA polymerase
[12] = read-out: MIC Mycobacterium tuberculosis H37Rv
[13] = ATCC19420, M. smegmatis ATCC 19420, read-out: MIC Mycobacterium smegmatis ATCC 19420

SMILES | IC50 [1, 7] | IC50 [1, 8] | MIC [2, 9] | MIC [3, 10] | IC50 [1, 11] | MIC [2, 12] | MIC [3, 13] | MCC mammalian cells Vero E6 ATCC CRL1586 [4] | MIC [5] | cross-resistance of rifampin-resistant mutants to the compound [6]
O=C(Nc1ccccn1)[C@H](Cc1ccccc1)Nc1ccccc1 | ≥ 100 nM and ~1000 nM | – | – | – | – | – | – | – | – | –
Cc1ccccc1NC(=O)[C@@H](Cc1ccccc1)NC(=O)c1ccccc1 [AAP1a, Nα-benzoyl-N-(2-methylphenyl)-D-phenylalaninamide] | – | 130 nM | 3.13 µg/mL (≈ 8.73 µM) | 0.2 µg/mL (≈ 0.558 µM) | – | – | – | – | – | –
Cc1ccccc1NC(=O)[C@H](Cc1ccccc1)NC(=O)c1ccccc1 [AAP1b, Nα-benzoyl-N-(2-methylphenyl)-L-phenylalaninamide] | – | 12000 nM | > 50 µg/mL | 1.56 µg/mL (≈ 4.35 µM) | – | – | – | – | – | –
Cc1ccc(NC(=O)C(Cc2ccccc2)NC(=O)c2ccco2)cc1 (stereo not drawn) [AAP2] | – | 5300 nM | 50 µg/mL (≈ 144 µM) | – | – | – | – | – | – | –
Cc1ccccc1NC(=O)C(Cc1cccc(O)c1)NC(=O)c1ccccc1 (stereo not drawn) [I-12] | – | – | – | – | 3500 nM | > 50 µg/mL | 3.12 µg/mL (≈ 8.35 µM) | >100 µg/mL | – | –
Cc1ccc(F)cc1NC(=O)C(Cc1ccccc1)NC(=O)c1ccccc1 (stereo not drawn) [I-75] | – | – | – | – | 990 nM | 1.56 µg/mL (≈ 4.14 µM) | 0.195 µg/mL (≈ 0.518 µM) | 4 µg/mL | 1.56 µg/mL (≈ 4.14 µM) | –
Cc1ccccc1NC(=O)C(Cc1ccccc1)NC(=O)c1ccccc1Cl (stereo not drawn) [I-91] | – | – | – | – | – | > 50 µg/mL | 0.39 µg/mL (≈ 0.993 µM) | 19 µg/mL | > 50 µg/mL | No rifampin-resistant mutant was found to exhibit cross-resistance
Cc1ccccc1NC(=O)C(Cc1ccccc1)NC(=O)c1ccccc1C (stereo not drawn) [I-112] | – | – | – | – | – | > 50 µg/mL | 0.39 µg/mL (≈ 1.05 µM) | 13 µg/mL | > 50 µg/mL | No rifampin-resistant mutant was found to exhibit cross-resistance
CCc1ccccc1NC(=O)C(Cc1ccccc1)NC(=O)c1ccccc1 (stereo not drawn) [I-115] | – | – | – | – | – | > 50 µg/mL | 0.39 µg/mL (≈ 1.05 µM) | 37 µg/mL | > 50 µg/mL | No rifampin-resistant mutant was found to exhibit cross-resistance
Cc1c(NC(=O)C(Cc2ccccc2)NC(=O)c2ccccc2)cccc1C(F)(F)F (stereo not drawn) [I-160] | – | – | – | – | – | > 50 µg/mL | 3.12 µg/mL (≈ 7.33 µM) | 21 µg/mL | > 50 µg/mL | No rifampin-resistant mutant was found to exhibit cross-resistance
O=C(NC(Cc1ccccc1)C(=O)Nc1ccccc1N1CCOCC1)c1ccccc1 (stereo not drawn) [I-181] | – | – | – | – | 400 nM | 0.78 µg/mL (≈ 1.82 µM) | 0.073 µg/mL (≈ 0.17 µM) | >100 µg/mL | 6.25 µg/mL (≈ 14.6 µM) | –
Cc1ncccc1NC(=O)C(Cc1ccccc1)NC(=O)c1ccccc1 (stereo not drawn) [II-5] | – | – | – | – | – | 50 µg/mL (≈ 139 µM) | 3.12 µg/mL (≈ 8.68 µM) | >36 µg/mL | > 50 µg/mL | No rifampin-resistant mutant was found to exhibit cross-resistance
Cc1ccccc1NC(=O)C(Cc1ccccc1)NC(=O)c1ccccn1 (stereo not drawn) [II-12] | – | – | – | – | – | 25 µg/mL (≈ 69.6 µM) | 3.12 µg/mL (≈ 8.69 µM) | >36 µg/mL | 50 µg/mL (≈ 139 µM) | No rifampin-resistant mutant was found to exhibit cross-resistance
O=C(NC(Cc1ccccc1)C(=O)Nc1cccc2cc[nH]c12)c1ccccc1 (stereo not drawn) [II-28] | – | – | – | – | – | 12.5 µg/mL (≈ 32.6 µM) | 0.78 µg/mL (≈ 2.03 µM) | 13 µg/mL | > 50 µg/mL | No rifampin-resistant mutant was found to exhibit cross-resistance
Cc1ccccc1NC(=O)C(Cc1ccccc1)NC(=O)c1cccc2[nH]ccc12 (stereo not drawn) [II-39] | – | – | – | – | – | 12.5 µg/mL (≈ 31.4 µM) | 0.39 µg/mL (≈ 0.981 µM) | 36 µg/mL | 12.5 µg/mL (≈ 31.4 µM) | No rifampin-resistant mutant was found to exhibit cross-resistance
O=C(NC(Cc1ccccc1)C(=O)Nc1cccc2cccnc12)c1ccccc1 (stereo not drawn) [IX-2, N-(1-oxo-3-phenyl-1-(quinolin-8-ylamino)propan-2-yl)benzamide] | – | – | – | – | – | > 39 µg/mL | 3.12 µg/mL (≈ 7.9 µM) | >39 µg/mL | > 50 µg/mL | No rifampin-resistant mutant was found to exhibit cross-resistance
O=C(NC(Cc1ccccc1)C(=O)Nc1cccc2cnccc12)c1ccccc1 (stereo not drawn) [IX-3, N-(1-(isoquinolin-5-ylamino)-1-oxo-3-phenylpropan-2-yl)benzamide] | – | – | – | – | – | 3.13 µg/mL (≈ 7.91 µM) | 0.195 µg/mL (≈ 0.493 µM) | >40 µg/mL | 6.25 µg/mL (≈ 15.8 µM) | No rifampin-resistant mutant was found to exhibit cross-resistance
O=C(NC(Cc1ccccc1)C(=O)Nc1cccc2ncccc12)c1ccccc1 (stereo not drawn) [IX-4, N-(1-oxo-3-phenyl-1-(quinolin-5-ylamino)propan-2-yl)benzamide] | – | – | – | – | – | 12.5 µg/mL (≈ 31.6 µM) | 0.78 µg/mL (≈ 1.97 µM) | >40 µg/mL | > 50 µg/mL | No rifampin-resistant mutant was found to exhibit cross-resistance
O=C(NC(Cc1ccccc1)C(=O)Nc1cccc2c1OCCO2)c1ccccc1 (stereo not drawn) [IX-5, N-(1-((2,3-dihydrobenzo[b][1,4]dioxin-5-yl)amino)-1-oxo-3-phenylpropan-2-yl)benzamide] | – | – | – | – | – | 6.25 µg/mL (≈ 15.5 µM) | 0.39 µg/mL (≈ 0.969 µM) | >40 µg/mL | 6.25 µg/mL (≈ 15.5 µM) | No rifampin-resistant mutant was found to exhibit cross-resistance
O=C(NC(Cc1ccc(O)cc1)C(=O)Nc1cccc2c1CCC2)c1ccccc1 (stereo not drawn) [IX-14, N-(1-((2,3-dihydro-1H-inden-4-yl)amino)-3-(4-hydroxyphenyl)-1-oxopropan-2-yl)benzamide] | – | – | – | – | – | 6.25 µg/mL (≈ 15.6 µM) | 0.39 µg/mL (≈ 0.974 µM) | >40 µg/mL | 12.5 µg/mL (≈ 31.2 µM) | No rifampin-resistant mutant was found to exhibit cross-resistance
Cc1ccccc1N[C@@H](Cc1ccccc1)C(=O)Nc1ccccc1 [Nα-(2-methylphenyl)-N-phenyl-phenylalaninamide] | ≥ 100 nM | – | – | ≥ 0.3 µg/mL | – | – | – | – | – | –
O=C(Nc1ccccc1F)[C@H](Cc1ccccc1)Nc1ccccc1 [Nα-phenyl-N-(2-fluorophenyl)-phenylalaninamide] | ≥ 100 nM | – | – | ≥ 0.3 µg/mL | – | – | – | – | – | –
O=C(Nc1ccncc1)[C@H](Cc1ccccc1)Nc1ccccc1 [Nα-phenyl-N-(4-pyridyl)-phenylalaninamide] | ≥ 100 nM | – | – | ≥ 0.3 µg/mL | – | – | – | – | – | –
O=C(Nc1ccccc1)[C@H](Cc1ccccc1)Nc1ccccc1 [Nα-phenyl-N-phenyl-phenylalaninamide] | ≥ 100 nM | – | – | ≥ 0.3 µg/mL | – | – | – | – | – | –
